Measured values from patent US7037660B2, “Methods for detecting and quantifying binding and inhibition of binding of species to nucleic acids” (Message Pharmaceuticals, priority 2001, dated 2006).

Experiments:
[1] = Proton exchange pKA of probe; assay type: physicochemical; conditions: dynamic proton exchange of the probe
Protocol: Displacement of Mn^2+ from RNA by RSG1.2, or neomycin b: Binding of RSG1.2 and neomycin b to each of the hairpins was studied at [RNA] between 20 and 30 μM, and again at [RNA]˜3 μM. The higher concentration studies were performed in a manner identical to that described above for the Mg^2+ exchange reactions. For the low concentration studies, HPO3^2− (20 mM) was used as the probe ion. Reactions were run in 10 mM PIPES buffer, with 45 mM KCl and [Mn^2+] between 50 and 150 nM. The pH of the samples was maintained at 7.8 in these experiments. Studies utilizing HPO3^2− are impractical at lower pH where the probe undergoes dynamic proton exchange (pKA=6.0) leading to significant shortening of the diamagnetic ^31P T2.

[2] = system: RRE1; test: Displacement of Mn2+ from RNA by neomycin b (probe 31P relaxation); assay type: binding; conditions: each condition studied
Protocol: (§1) Mn^2+ binding by RNA constructs, and its displacement by either K^+ or Mg^2+. Samples containing MeOPH (5 mM) and PIPES buffer (5 mM, pH=7.2), and 3 μM Mn^2+ were titrated with each RNA. The ^31P transverse relaxation rates (R2=1/T2) of the probe in the resulting solutions were measured. Plots of R2 versus [RNA] were prepared. The effects of [K^+] and [Mg^2+] on Mn^2+ binding were determined by titrating similar solutions containing buffer, MeOPH, Mn^2+ and one of the RNAs (10 to 30 μM) with solutions of either KCl or MgCl2, and monitoring the relaxation rate of the probe as a function of cation concentration. The effects of [K^+] were studied over the range of 12.5 to 150 mM ([…] K^+ is reportedly 140 mM). Mn^2+ displacements from each of the hairpins by Mg^2+, neomycin b, and RSG1.2 were studied in the absence of added KCl and with sufficient KCl added to bring the total [K^+] to 100 mM.
(§2) Displacement of Mn^2+ from RNA by RSG1.2, or neomycin b: Binding of RSG1.2 and neomycin b to each of the hairpins was studied at [RNA] between 20 and 30 μM, and again at [RNA]˜3 μM. The higher concentration studies were performed in a manner identical to that described above for the Mg^2+ exchange reactions. For the low concentration studies, HPO3^2− (20 mM) was used as the probe ion. Reactions were run in 10 mM PIPES buffer, with 45 mM KCl and [Mn^2+] between 50 and 150 nM. […]

[3] = system: RRE2; test: as above; assay type: binding; conditions: each condition studied
Protocol: as §1, §2

[4] = system: 27-nt A-site RNA construct; test: Displacement of Mn2+ from RNA by neomycin (probe 31P relaxation); assay type: binding
Protocol: The ^31P T2 was measured for each sample by varying the length (number of pulses) of the CPMG portion of the pulse sequence in FIG. 2 and determining the effect of this change on the intensity (i) of the signals. […] The dl delay was typically 5 to 20 seconds, and delays in the inept and reverse inept parts of the sequence were set to a value equal to 1/4J, where J is the ^1H—^31P coupling constant. Delays between pulses in the CPMG train varied from 50 to 500 microseconds.
The data shown in FIG. 9 were most consistent with a model where three neomycin molecules were bound to each RNA molecule with subsequent release of Mn^2+.
as §1
Displacement of Mn^2+ from RNA by RSG1.2, or neomycin b: Binding of RSG1.2 and neomycin b to each of the hairpins was studied at [RNA] between 20 and 30 μM, and again at [RNA]˜3 μM. The higher concentration studies were performed in a manner identical to that described above for the Mg^2+ exchange reactions. For the low concentration studies, HPO3^2− (20 mM) was used as the probe ion. Reactions were run in 10 mM PIPES buffer, with 45 mM KCl and [Mn^2+] between 50 and 150 nM. The pH of the samples was maintained at 7.8 in these experiments. […]

[5] = system: another RRE1 model; conditions: cited from earlier work

O=[PH](O)O [HPO3^2−, phosphite dianion]
pKA [1]: 6.0

NC[C@@H]1O[C@H](O[C@H]2[C@@H](O)[C@H](O[C@@H]3[C@@H](O)[C@H](N)C[C@H](N)[C@H]3O[C@H]3O[C@H](CN)[C@@H](O)[C@H](O)[C@H]3N)O[C@@H]2CO)[C@H](N)[C@@H](O)[C@@H]1O [neomycin, neomycin b]
equivalents of neomycin bound [2]: multiple equivalents | equivalents of neomycin bound [3]: multiple equivalents | neomycin molecules bound to each RNA molecule ([4]; RNA 27 μM, Mn^2+ 16 μM (Example 11)): three | equivalents of neomycin bound ([4]; [RNA]=2.7 μM, 100 mM K^+): single equivalent | equivalents of neomycin bound ([4]; [RNA]=27 μM (Example 16, data not shown)): 3 | equivalents of neomycin b bound [5]: three
